Legend:
Type in all cases: functional
[1] = system: MDA-MB-468; test: Growth inhibition of human MDA-MB-468 cells after 48 hrs by sulforhodamine B assay; details: MDA-MB-468, 48 h
[2] = system: T47D; test: Growth inhibition of human T47D cells after 48 hrs by sulforhodamine B assay
[3] = Growth inhibition of human Hs 578T cells after 48 hrs by sulforhodamine B assay
[4] = system: BT-549; test: Growth inhibition of human BT549 cells after 48 hrs by sulforhodamine B assay; details: BT-549, 48 h
[5] = system: MCF7; test: Growth inhibition of human MCF7 cells after 48 hrs by sulforhodamine B assay; details: MCF7, 48 h
[6] = system: MDA-MB-231; test: Growth inhibition of human MDA-MB-231 cells after 48 hrs by sulforhodamine B assay; details: MDA-MB-231, 48 h
[7] = system: DU-145; test: Growth inhibition of human DU145 cells after 48 hrs by sulforhodamine B assay; details: DU-145, 48 h
[8] = system: PC-3; test: Growth inhibition of human PC3 cells after 48 hrs by sulforhodamine B assay; details: PC-3, 48 h
[9] = Growth inhibition of human UO31 cells after 48 hrs by sulforhodamine B assay; details: UO-31, 48 h
[10] = system: SN12C; test: Growth inhibition of human SN12C cells after 48 hrs by sulforhodamine B assay
[11] = system: TK-10; test: Growth inhibition of human TK10 cells after 48 hrs by sulforhodamine B assay; details: TK-10, 48 h
[12] = system: CAKI-1; test: Growth inhibition of human CAKI-1 cells after 48 hrs by sulforhodamine B assay; details: CAKI-1, 48 h
[13] = Growth inhibition of human RXF393 cells after 48 hrs by sulforhodamine B assay; details: RXF 393, 48 h
[14] = system: A498; test: Growth inhibition of human A498 cells after 48 hrs by sulforhodamine B assay; details: A498, 48 h
[15] = system: ACHN; test: Growth inhibition of human ACHN cells after 48 hrs by sulforhodamine B assay
[16] = system: 786-0; test: Growth inhibition of human 786-0 cells after 48 hrs by sulforhodamine B assay; details: 786-0, 48 h
[17] = system: SK-OV-3; test: Growth inhibition of human SKOV3 cells after 48 hrs by sulforhodamine B assay; details: SK-OV-3, 48 h
[18] = system: OVCAR-8; test: Growth inhibition of human OVCAR8 cells after 48 hrs by sulforhodamine B assay; details: OVCAR-8, 48 h
[19] = Growth inhibition of human NCI-ADR-RES cells after 48 hrs by sulforhodamine B assay
[20] = Growth inhibition of human OVCAR4 cells after 48 hrs by sulforhodamine B assay; details: OVCAR-4, 48 h
[21] = Growth inhibition of human OVCAR5 cells after 48 hrs by sulforhodamine B assay; details: OVCAR-5, 48 h
[22] = system: IGROV-1; test: Growth inhibition of human IGROV1 cells after 48 hrs by sulforhodamine B assay; details: IGROV-1, 48 h
[23] = system: OVCAR-3; test: Growth inhibition of human OVCAR3 cells after 48 hrs by sulforhodamine B assay; details: OVCAR-3, 48 h
[24] = Growth inhibition of human UACC257 cells after 48 hrs by sulforhodamine B assay; details: UACC-257, 48 h
[25] = system: UACC-62; test: Growth inhibition of human UACC62 cells after 48 hrs by sulforhodamine B assay; details: UACC-62, 48 h
[26] = system: SK-MEL-28; test: Growth inhibition of human SK-MEL-28 cells after 48 hrs by sulforhodamine B assay; details: SK-MEL-28, 48 h
[27] = system: SK-MEL-5; test: Growth inhibition of human SK-MEL-5 cells after 48 hrs by sulforhodamine B assay; details: SK-MEL-5, 48 h
[28] = system: MDA-MB-435; test: Growth inhibition of human MDA-MB-435 cells after 48 hrs by sulforhodamine B assay; details: MDA-MB-435, 48 h
[29] = system: SK-MEL-2; test: Growth inhibition of human SK-MEL-2 cells after 48 hrs by sulforhodamine B assay; details: SK-MEL-2, 48 h
[30] = system: M14; test: Growth inhibition of human M14 cells after 48 hrs by sulforhodamine B assay; details: M14, 48 h
[31] = system: Malme-3M; test: Growth inhibition of human MALME-3M cells after 48 hrs by sulforhodamine B assay
[32] = system: LOX IMVI; test: Growth inhibition of human LOXIMVI cells after 48 hrs by sulforhodamine B assay
[33] = system: U-251; test: Growth inhibition of human U251 cells after 48 hrs by sulforhodamine B assay; details: U-251, 48 h
[34] = system: SNB-75; test: Growth inhibition of human SNB75 cells after 48 hrs by sulforhodamine B assay; details: SNB-75, 48 h
[35] = Growth inhibition of human SF539 cells after 48 hrs by sulforhodamine B assay; details: SF-539, 48 h
[36] = system: SNB-19; test: Growth inhibition of human SNB19 cells after 48 hrs by sulforhodamine B assay; details: SNB-19, 48 h
[37] = system: SF-295; test: Growth inhibition of human SF295 cells after 48 hrs by sulforhodamine B assay; details: SF-295, 48 h
[38] = system: SF-268; test: Growth inhibition of human SF268 cells after 48 hrs by sulforhodamine B assay; details: SF-268, 48 h
[39] = system: SW-620; test: Growth inhibition of human SW620 cells after 48 hrs by sulforhodamine B assay; details: SW-620, 48 h
[40] = system: KM12; test: Growth inhibition of human KM12 cells after 48 hrs by sulforhodamine B assay; details: KM12, 48 h
[41] = system: HT-29; test: Growth inhibition of human HT-29 cells after 48 hrs by sulforhodamine B assay; details: HT-29, 48 h
[42] = system: HCT-15; test: Growth inhibition of human HCT15 cells after 48 hrs by sulforhodamine B assay; details: HCT-15, 48 h
[43] = system: HCT-116; test: Growth inhibition of human HCT116 cells after 48 hrs by sulforhodamine B assay; details: HCT-116, 48 h
[44] = Growth inhibition of human HCC2998 cells after 48 hrs by sulforhodamine B assay; details: HCC 2998, 48 h
[45] = system: COLO 205; test: Growth inhibition of human COLO205 cells after 48 hrs by sulforhodamine B assay; details: COLO 205, 48 h
[46] = system: NCI-H522; test: Growth inhibition of human NCI-H522 cells after 48 hrs by sulforhodamine B assay; details: NCI-H522, 48 h
[47] = system: NCI-H460; test: Growth inhibition of human NCI-H460 cells after 48 hrs by sulforhodamine B assay; details: NCI-H460, 48 h
[48] = system: NCI-H322M; test: Growth inhibition of human NCI-H322M cells after 48 hrs by sulforhodamine B assay
[49] = system: NCI-H23; test: Growth inhibition of human NCI-H23 cells after 48 hrs by sulforhodamine B assay; details: NCI-H23, 48 h
[50] = system: NCI-H226; test: Growth inhibition of human NCI-H226 cells after 48 hrs by sulforhodamine B assay; details: NCI-H226, 48 h
[51] = system: HOP-62; test: Growth inhibition of human HOP62 cells after 48 hrs by sulforhodamine B assay; details: HOP-62, 48 h
[52] = Growth inhibition of human HOP92 cells after 48 hrs by sulforhodamine B assay; details: HOP-92, 48 h
[53] = system: A549; test: Growth inhibition of human A549/ATCC cells after 48 hrs by sulforhodamine B assay; details: A549, 48 h
[54] = Growth inhibition of human EKVX cells after 48 hrs by sulforhodamine B assay
[55] = system: RPMI-8226; test: Growth inhibition of human RPMI8226 cells after 48 hrs by sulforhodamine B assay; details: RPMI-8226, 48 h
[56] = system: SR; test: Growth inhibition of human SR cells after 48 hrs by sulforhodamine B assay
[57] = system: MOLT-4; test: Growth inhibition of human MOLT4 cells after 48 hrs by sulforhodamine B assay; details: MOLT-4, 48 h
[58] = system: K562; test: Growth inhibition of human K562 cells after 48 hrs by sulforhodamine B assay; details: K562, 48 h
[59] = system: HL-60(TB); test: Growth inhibition of human HL-60(TB) cells after 48 hrs by sulforhodamine B assay; details: HL-60, 48 h
[60] = system: CCRF-CEM; test: Growth inhibition of human CCRF-CEM cells after 48 hrs by sulforhodamine B assay
[61] = system: Paracentrotus lividus; test: Microtubule destabilizing activity in sea urchin free-swimming blastula assessed as embryo spinning treated at 9 to 10 hrs post-fertilization measured after 0.15 to 15 hrs
[62] = system: Paracentrotus lividus; test: Antimitotic activity in sea urchin fertilized egg assessed as cleavage arrest treated at 8 to 20 mins post-fertilization measured at 2.5 to 5.5 hrs post-fertilization
[63] = system: Paracentrotus lividus; test: Antimitotic activity in sea urchin fertilized egg assessed as cleavage alteration treated at 8 to 20 mins post-fertilization measured at 2.5 to 5.5 hrs post-fertilization

COc1ccc(-c2onc(N)c2-c2cc(OC)c3c(c2)OCO3)cc1
GI50 [1]: 0.538 µM
GI50 [2]: 4.41 µM
GI50 [3]: 2.94 µM
GI50 [4]: 2.43 µM
GI50 [5]: 0.962 µM
GI50 [6]: 3.75 µM
GI50 [7]: 3.99 µM
GI50 [8]: 4.28 µM
GI50 [9]: 14.3 µM
GI50 [10]: 5.13 µM
GI50 [11]: 12.3 µM
GI50 [12]: 3.69 µM
GI50 [13]: 2.94 µM
GI50 [14]: 1.81 µM
GI50 [15]: 6.74 µM
GI50 [16]: 6.56 µM
GI50 [17]: 4.2 µM
GI50 [18]: 4.26 µM
GI50 [19]: 0.684 µM
GI50 [20]: 16.1 µM
GI50 [21]: 8.8 µM
GI50 [22]: 10.6 µM
GI50 [23]: 2.39 µM
GI50 [24]: 3.16 µM
GI50 [25]: 2.45 µM
GI50 [26]: 5.62 µM
GI50 [27]: 2.45 µM
GI50 [28]: 0.29 µM
GI50 [29]: 1.32 µM
GI50 [30]: 1.4 µM
GI50 [31]: 8.51 µM
GI50 [32]: 3.26 µM
GI50 [33]: 2.31 µM
GI50 [34]: 1.75 µM
GI50 [35]: 3.25 µM
GI50 [36]: 6.74 µM
GI50 [37]: 2.32 µM
GI50 [38]: 13.3 µM
GI50 [39]: 0.495 µM
GI50 [40]: 2.23 µM
GI50 [41]: 1.49 µM
GI50 [42]: 1.14 µM
GI50 [43]: 2.01 µM
GI50 [44]: 2.77 µM
GI50 [45]: 2.44 µM
GI50 [46]: 0.796 µM
GI50 [47]: 3.04 µM
GI50 [48]: 5.98 µM
GI50 [49]: 3.08 µM
GI50 [50]: 28 µM
GI50 [51]: 4.59 µM
GI50 [52]: 6.35 µM
GI50 [53]: 2.74 µM
GI50 [54]: 6.58 µM
GI50 [55]: 4.07 µM
GI50 [56]: 0.449 µM
GI50 [57]: 3.28 µM
GI50 [58]: 0.519 µM
GI50 [59]: 1.3 µM
GI50 [60]: 2.47 µM
EC [61]: >10 µM
EC [62]: >4 µM
EC [63]: 0.2 µM

Reference: ChEMBL document CHEMBL3112491, “3-(5-)-Amino-o-diarylisoxazoles: regioselective synthesis and antitubulin activity” (2014)
